We go through ten compounds from US8772500B2, “TRPV3 modulators” (AbbVie Inc., priority 2011, dated 2014).

For one series, the target named is T1, human TRPV3 (Homo sapiens, UniProt Q8NET8).
T1 construct: expressed in transfected cells
T1 sequence (Q8NET8 1-790): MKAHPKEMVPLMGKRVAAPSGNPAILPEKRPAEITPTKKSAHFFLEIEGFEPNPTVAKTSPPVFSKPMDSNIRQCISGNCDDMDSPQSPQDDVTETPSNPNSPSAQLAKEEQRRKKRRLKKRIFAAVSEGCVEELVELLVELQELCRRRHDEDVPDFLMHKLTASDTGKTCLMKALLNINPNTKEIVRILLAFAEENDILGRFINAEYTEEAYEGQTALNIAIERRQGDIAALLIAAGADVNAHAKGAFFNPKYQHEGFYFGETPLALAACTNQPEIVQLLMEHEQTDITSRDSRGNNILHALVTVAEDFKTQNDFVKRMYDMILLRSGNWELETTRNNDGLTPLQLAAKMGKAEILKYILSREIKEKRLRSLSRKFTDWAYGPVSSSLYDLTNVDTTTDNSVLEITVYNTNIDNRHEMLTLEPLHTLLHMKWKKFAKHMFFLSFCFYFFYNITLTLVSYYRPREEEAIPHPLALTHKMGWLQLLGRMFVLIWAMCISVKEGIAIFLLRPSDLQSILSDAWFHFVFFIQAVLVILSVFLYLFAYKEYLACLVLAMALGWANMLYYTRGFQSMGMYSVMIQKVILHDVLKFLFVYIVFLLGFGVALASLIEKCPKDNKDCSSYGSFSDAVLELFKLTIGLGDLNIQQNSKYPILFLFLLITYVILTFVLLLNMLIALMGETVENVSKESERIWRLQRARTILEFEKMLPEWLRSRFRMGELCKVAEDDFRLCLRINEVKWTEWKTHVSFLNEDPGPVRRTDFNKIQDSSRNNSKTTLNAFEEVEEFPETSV
In words: In vitro antagonism of recombinant human TRPV3 activation (FLIPR Tetra calcium assay, 2-APB as agonist). In kind it is cell-based. To be noted: HEK293 cells stably expressing human TRPV3; 2-APB 80 μM; range class; read-out: IC50 (reported range). In a few lines:
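Readout is FLIPR fluorescence, max minus min as percent of uninhibited 2-APB response, giving IC50 (usually mean of ≥2 runs). Stable human TRPV3 HEK293 cells, Calcium-4 dye-loaded, got test compound then, three minutes later, 80 μM 2-APB (EC80); run length 10 min.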

Series [1] is described as follows: In vitro human microsomal stability assay. Format: in vitro ADME. Particulars: human, 0.5 h, 0.5 μM, pH 7.4. The gist of the method: (§1)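 Stability readout reflects compound turnover by hepatic microsomes from Sprague-Dawley rats or from humans, according to the assay. Reactions at 37 °C contained NADPH, which was present in the zero-time plates as well.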
Series [2] in a line: In vitro rat microsomal stability assay. In kind it is in vitro ADME, rat (Sprague-Dawley). To be noted: Sprague-Dawley, rat, 0.5 h, 0.5 μM, pH 7.4. The gist of the method: as §1

`OC(c1ccccn1)C1(c2ccc(C(F)(F)F)cc2)CC(F)(F)C1` (stereo not drawn) [Example 133, {3,3-difluoro-1-[4-(trifluoromethyl)phenyl]cyclobutyl}(pyridin-2-yl)-methanol]: the IC50 at human TRPV3 was in the range of 50 to 500 nM. Besides, in series [1], the “HUMAN MICROSOMAL STABILITY (% REMAINING AFTER 30 MINUTES)” value turned out to be 73%. In series [2], the “RAT MICROSOMAL STABILITY (% REMAINING AFTER 30 MINUTES)” value was 61%.
For the compound `OC(c1ccccn1)C1(c2ccc(C(F)(F)F)cn2)CCC1` (stereo not drawn) [Example 115, pyridin-2-yl{1-[5-(trifluoromethyl)pyridin-2-yl]cyclobutyl}methanol], the IC50 at human TRPV3 fell in the range of 5100 to 20000 nM. Also, in series [1], the “HUMAN MICROSOMAL STABILITY (% REMAINING AFTER 30 MINUTES)” value was over 85%. The “RAT MICROSOMAL STABILITY (% REMAINING AFTER 30 MINUTES)” value in series [2] is reported as 81%.
In the case of `OC(CC1(c2ccc(OC(F)(F)F)cc2)CCC1)c1ccccn1` (stereo not drawn) [Example 76, 1-(pyridin-2-yl)-2-{1-[4-(trifluoromethoxy)phenyl]cyclobutyl}ethanol], the IC50 at human TRPV3 lay within 501 to 1000 nM. The “HUMAN MICROSOMAL STABILITY (% REMAINING AFTER 30 MINUTES)” value in series [1] stood at 39%. Besides, the “RAT MICROSOMAL STABILITY (% REMAINING AFTER 30 MINUTES)” value in series [2] is recorded as 0.47%.
On the same counts, the results for `OC(c1ccccn1)C1(c2ccc(Cc3ccccc3)cc2)CCC1` (stereo not drawn) [Example 25, [1-(4-benzylphenyl)cyclobutyl](pyridin-2-yl)methanol] are 1100 to 5000 nM, 21% and 1.3%.
Take `OC(c1ccccn1)C1(c2cccc(Cl)c2)CCCO1` (stereo not drawn) [Example 104, (anti)-[2-(3-chlorophenyl)tetrahydrofuran-2-yl](pyridin-2-yl)methanol]: at human TRPV3, the IC50 lay within 50 to 500 nM. Further, in series [1], the “HUMAN MICROSOMAL STABILITY (% REMAINING AFTER 30 MINUTES)” value is 15%. Also, the “RAT MICROSOMAL STABILITY (% REMAINING AFTER 30 MINUTES)” value in series [2] was 0.42%.
On to `CC1(O)CC(c2cncc(C(F)(F)F)c2)(C(O)c2ccccn2)C1` [Example 308, cis-3-[(S)-hydroxy(pyridin-2-yl)methyl]-1-methyl-3-[5-(trifluoromethyl)-pyridin-3-yl]cyclobutanol], for which the IC50 on human TRPV3 lay in the range of 501 to 1000 nM. Further, the “HUMAN MICROSOMAL STABILITY (% REMAINING AFTER 30 MINUTES)” value in series [1] amounted to 41%. Besides, the “RAT MICROSOMAL STABILITY (% REMAINING AFTER 30 MINUTES)” value in series [2] is given as 13%.
For `OC(c1ccccn1)C1(c2cccc(F)c2)CCCO1` (stereo not drawn) [Example 100, (anti)-[2-(3-fluorophenyl)tetrahydrofuran-2-yl](pyridin-2-yl)methanol], the IC50 on human TRPV3 is 501 to 1000 nM. In series [1], the “HUMAN MICROSOMAL STABILITY (% REMAINING AFTER 30 MINUTES)” value stood at 26%. For the same compound, the “RAT MICROSOMAL STABILITY (% REMAINING AFTER 30 MINUTES)” value in series [2] was determined as 2.9%.
In the case of `OC(C1CCc2cccnc21)C1(c2ccc(Cl)c(Cl)c2)CCC1` (stereo not drawn) [Example 168, (syn)-[1-(3,4-dichlorophenyl)cyclobutyl][6,7-dihydro-5H-cyclopenta[b]-pyridin-7-yl]methanol], the IC50 at human TRPV3 was 5100 to 20000 nM. For the same compound, in series [1], the “HUMAN MICROSOMAL STABILITY (% REMAINING AFTER 30 MINUTES)” value amounted to 5.6%. Further, the “RAT MICROSOMAL STABILITY (% REMAINING AFTER 30 MINUTES)” value in series [2] was under 0.01%.
Turning to `OC(c1ccccn1)C1(c2ccc(Cl)c(C(F)(F)F)c2)CC(F)(F)C1` (stereo not drawn) [Example 138, {1-[4-chloro-3-(trifluoromethyl)phenyl]-3,3-difluorocyclobutyl}(pyridin-2-yl)methanol], the IC50 on human TRPV3 fell in the range of 501 to 1000 nM. Also, the “HUMAN MICROSOMAL STABILITY (% REMAINING AFTER 30 MINUTES)” value in series [1] worked out at 41%. For the same compound, the “RAT MICROSOMAL STABILITY (% REMAINING AFTER 30 MINUTES)” value in series [2] is reported as 18%.
With `OC(c1ccccn1)C1(c2ccccc2OC(F)(F)F)CCCO1` (stereo not drawn) [Example 96, (anti)-pyridin-2-yl{2-[2-(trifluoromethoxy)phenyl]tetrahydrofuran-2-yl}-methanol], the IC50 on human TRPV3 was 1100 to 5000 nM. For the same compound, the “HUMAN MICROSOMAL STABILITY (% REMAINING AFTER 30 MINUTES)” value in series [1] worked out at 0.68%. Moreover, the “RAT MICROSOMAL STABILITY (% REMAINING AFTER 30 MINUTES)” value in series [2] worked out at 0.15%.
